Results published in patent publication US20250361271A1, “PEPTIDE AGONIST” (THE UNIVERSITY OF BIRMINGHAM, priority 2022, published 2025).
Where two headings read alike, the source gives them in different places. Where a SMILES comes first, the peptide text is derived from it. [ ]: non-standard residue; d: D form. pGlu = O=C1CC[C@@H](C(=O)O)N1

Columns and labels:
[1] = tested on: primary murine calvarial osteoblasts; test: Alkaline phosphatase activity, murine osteoblasts; format: cell-based, mouse; conditions: 10 ng/ml peptide, 4 days, vs untreated cells, FIG. 5a
Experimental: Skin was removed from around calvaria using forceps, and the calvaria was dissected out and cleaned of any contaminating tissue. Calvaria were added to αMEM media supplemented with 1 mg/ml of collagenase d (Roche, Basel, Switzerland, COLLD-RO). Tubes were then agitated at 37° C. for 10 minutes and the media discarded. αMEM media supplemented with 1 mg/ml of collagenase d was again added to calvaria and shaken at 37° C. for 30 minutes. Media (containing cells) was then removed and kept on ice. The calvaria were then again shaken at 37° C. for 10 minutes in 1.5 ml of αMEM media supplemented with 5 μM EDTA (Sigma-Aldrich, E7889) and the cell containing media transferred to the sample on ice, pooling the cells. […] Cells on ice were then spun down at 300 g for 4 minutes, resuspended in 1 ml of Basal media and counted using a haemocytometer. […] Mineralisation was assessed by quantifying the level of alkaline phosphate (ALP) activity (absorbance at 405 nm) per condition normalized to the absorbance generated by the untreated control (control on the graph). […] The plate was wrapped in foil and left to run for 45 minutes at 37° C. in an incubated shaker (SciQuip; Shropshire, UK) before being quantified using a Synergy HT plate reader (BioTek) with absorbance set at 405 nm.

[2] = tested on: primary human osteoblasts; test: Alkaline phosphatase activity, human osteoblasts; format: cell-based; conditions: 10 ng/ml peptide, 4 days, vs untreated cells, FIG. 5a
Experimental: Human osteoarthritis subchondral joint tissue was obtained at the time of total knee and hip joint replacement operations from the Royal Orthopaedic Hospital (Birmingham). To isolate primary osteoblasts, cartilage was removed from the femoral condyles and tibial plateaus and cut into 2 mm^2 pieces. Samples were kept in media and cleaned of fat. Media contains DMEM (Sigma, D6546), FCS (10%), GPS (1%), Non-essential amino acid (1%; Sigma, M7145), β10 glycerophosphate (2 mM; Sigma, G9422) and L-Ascorbic acid (50 μg/ml; Sigma, A5960). Bone chips were placed in T75 flasks in 10 mL of media, replacing media every 2-3 days. […]
Osteoblasts (8×10^3 cells/well) were cultured in mineralisation differentiation media in the presence or absence of peptide (10 ng/ml) for 4 days. Mineralisation was assessed by quantifying the level of alkaline phosphate (ALP) activity (absorbance at 405 nm) per condition normalized to the absorbance generated by the untreated control (control on the graph).
To measure ALP activity, cells were washed in PBS before being lysed in 100 μl of RIPA buffer (Thermo Fisher, R^0278) for 15 minutes on ice. […] The plate was wrapped in foil and left to run for 45 minutes at 37° C. in an incubated shaker (SciQuip; Shropshire, UK) before being quantified using a Synergy HT plate reader (BioTek) with absorbance set at 405 nm.

[3] = human, plasma
Experimental: Store at −20° C. or on ice. • 2) Thaw the plasma and spin in a centrifuge at 1500×g for 10 minutes at room temperature. • 3) Prepare stock solution of the peptide at 10 mM in dimethyl sulfoxide (DMSO) or phosphate buffered saline (PBS) and dilute solutions by adding 3 μL of 10 mM stock to 297 μL DMSO or PBS (100 µM stock for a final 1 μM concentration). • 4) Add 550 μL plasma to an incubation tube and separately add 5 μL of peptide stock solution to an incubation tube. Warm the incubation tubes (5 minutes, 37° C., with shaking). • 5) After warming, add 495 μL of warmed plasma to warmed peptide (time=0). Mix well and shake the tube containing the mixed sample (37° C., 1500×g). • 6) At 2, 5, 15, 30, 45 and 60 minutes after contacting the peptide and plasma, collect 40 μL of the sample into pre-prepared quench tubes. • 7) Analyse the sample at each time point by mass spectrometry. Take all measurements in duplicate.
The samples were analysed and the T1/2 values were calculated by XenoGesis. The T1/2 values correspond to the time taken for the concentration of the peptide in the blood or plasma to be reduced by 50%.

T1/2 in plasma (mouse) = format: in vitro ADME; conditions: mouse, plasma; 1 μM peptide, 37° C.
Source text: Take all measurements in duplicate.

[4] = tested on: PBLs on cytokine stimulated HDBECs
Experimental: Blood samples were obtained from consensual healthy donors and were collected in EDTA tubes (Sigma-Aldrich). […] 5 ml of blood was layered on top of the density gradient, and was centrifuged at 2500 rpm for 45 minutes. […] The PBMCs were washed twice for 7 minutes at 1500 rpm. Peripheral blood lymphocytes (PBLs) were isolated via panning PBMCs onto a culture flask for 30 minutes at 37° C., allowing monocytes to adhere.
HDBECS defrosted at 37° C. in a 25 cm^2 cell culture flask in 10 ml of media were dissociated using EDTA (Sigma-Aldrich) and Trypsin (Gibco) and seeded on 10 wells in a 12-well tissue culture plates (Falcon) and left to adhere at 37° C. After 24 hours, confluent endothelial layers were cytokine stimulated using 100 U/ml TNF-α (Sigma-Aldrich) and 10 ng/ml IFN-γ (Peprotech) for 24 hours at 37° C. The peptide treatment of the 1×10^6 cells/ml PBLs consisted of adding the peptides immediately before use. […] 1×10^6 PBLs were added to each well and incubated at 37° C., allowing PBLs to adhere to migrate across the endothelium. […] Cells were then fixed with 2% glutaraldehyde for 10 minutes and then imaged using phase-contrast microscopy via an inverted bright-field microscope at 20× magnification.
Imaging of the PBL migration assay was carried out using ImagePro 7 software (Media Cybernetics). Surface adherent cells were categorised as being phase-bright, and transmigrated cells were categorised as phase-dark with altered morphology, appearing as being under the endothelial layer. Images were taken at 5 different fields of each well, and an average of counted adherent and migrated PBLs was calculated.
The same methods described for the in vitro transmigration assay and analysis were used, and PBL transmigration was calculated as a percentage of adherent cells. Peptides were added to the PBLs at concentrations ranging from 0.0001-500 ng/ml on the cytokine stimulated HDBECs and the resulting PBL transmigration (as a percentage of adherent cells) was plotted as a function of log10 of the peptide concentration.
The peptides were added at concentration of 20 ng/ml and run alongside untreated PBL (PBL0) and scrambled protein to analyse their effects on adhesion and transmigration.

Molecule | ALP activity (mineralisation), murine osteoblasts [1] | ALP activity (mineralisation), human osteoblasts [2] | half-life [3] [h] | half-life (T1/2 in plasma (mouse)) [h] | IC50 [4] [nM] | % Inhibition (3 nM) ([4]; 3 nM peptide, inhibition of PBL transmigration (as a percentage of adherent cells)) [%]
ELSNEER [SEQ ID NO. 47, reference compound] | did not exhibit a statistically significant change in osteoblast activity | did not exhibit a statistically significant change in osteoblast activity |  |  |  | 
C[C@H](NC(=O)CNC(=O)[C@@H]1CCC(=O)N1)C(=O)O [SEQ ID NO. 21, pEGA] ([pGlu]-Gly-Ala-OH) |  |  | > 3 | > 3 | 0.12 | 41.20
